Reference: patent US20160244679A1, “SELECTIVE LIQUID-LIQUID EXTRACTION OF OXIDATIVE DESULFURIZATION REACTION PRODUCTS” (SAUDI ARABIAN OIL COMPANY, priority 2011, published 2016)

How the values were obtained:
Format in all cases: physicochemical
[1] = Batch liquid-liquid extraction of oxidized model diesel with 70 W % aqueous formic acid, gas chromatography (Example 2, Table 11A); details: for total extraction: two batch extractions, about 1:1, 23° C., 1 atmosphere
Procedure: (§1) A quantity of 100 mL of a model diesel feed formed of xylene, DBT, DBT sulfoxide and DBT sulfone (with a total sulfur content of 1635 ppmw) was oxidized by 30 W % aqueous hydrogen peroxide at a temperature of 37° C. and at a pressure of 1 atmosphere for a period of 70 minutes with solid ZnO catalyst (1.2 g) and a ratio of oxidant (H2O2) to organic sulfur of 4:1 in acetic acid, about 10 mL. After the sold catalyst settled, the model diesel was removed for extraction of sulfoxidation products and removal of aqueous H2O2 using an embodiment of the selective solvent formulation of the present invention.
A quantity of oxidized model diesel feed as used in Example 1 was subjected to extraction to remove DBT sulfoxide and DBT sulfone using a selective solvent formulation of 70 W % aqueous formic acid. Two batch extractions were sequentially conducted using a solvent to model diesel ratio of about 1:1 at a temperature of 23° C. and at a pressure of 1 atmosphere for a period of 2 minutes, during which the contents were stirred. The total extraction of DBT sulfoxide and DBT sulfone was 94 W % and 56 W % respectively. Furthermore, the co-extraction of xylene was limited to 2 W % after the first extraction, and increased by 3.8 W % after the second extraction, based on the normalization percentage of the peak regions for the GC analysis for each extraction. The normalization method is qualitative and quasi-quantitative, so that the peak area varies. The slight positive (3.8%) of xylene is due to the normalization of the sum of all peaks and it was changed by material balance variation and/or with measurement error.
The co-extraction of DBT (not oxidized) was limited to 10 W % after both extractions. The total sulfur measured by sulfur speciation determined that the overall sulfur content was reduced by 56 W % as shown in Table 11B.

[2] = Batch liquid-liquid extraction of oxidized model diesel with 50 W % aqueous acetic acid, gas chromatographic analysis (Example 1, Table 10A); details: for co-extraction: after both extractions; for total extraction: two batch extractions, solvent-to-model diesel about 1:1, 23° C., 1 atmosphere
Procedure: as §1
DBT sulfoxide and DBT sulfone were extracted using a selective solvent formulation of 50 W % aqueous acetic acid. Two batch extractions were sequentially conducted using a solvent-to-model diesel ratio of about 1:1 at a temperature of 23° C. and at a pressure of 1 atmosphere for a period of 2 minutes, during which the contents were stirred. The total extraction of DBT sulfoxide and DBT sulfone was 95 W % and 55 W % respectively. Furthermore, the co-extraction of xylene was limited to 1.9 W % after both extractions, and the co-extraction of DBT (not oxidized) was limited to 13.2 W % after both extractions. The total sulfur measured by sulfur speciation (using an ANTEK Model 9000 analyzer commercially available from Antek Instruments, Inc., Houston, Tex. USA) determined that the overall sulfur content was reduced by 55 W % as shown at Table 10B.

[3] = Batch liquid-liquid extraction of oxidized model diesel with 50 W % aqueous methanol, gas chromatography (Example 3, Table 12A)
Procedure: as §1
A quantity of oxidized model diesel feed as used in Example 1 was subjected to extraction to remove DBT sulfoxide and DBT sulfone using a selective solvent formulation of 50 W % aqueous methanol. One extraction was conducted using a solvent to model diesel ratio of about 1:1 at a temperature of 23° C. and at a pressure of 1 atmosphere for a period of 2 minutes, during which the contents were stirred. The total extraction of DBT sulfoxide was 51.5 W %. […] The co-extraction of DBT (not oxidized) was limited to 3.1 W %. The total sulfur measured by sulfur speciation determined that the overall sulfur content was reduced by 16 W % as shown at Table 12B.

[4] = Model diesel oxidized, before extraction
[5] = after 1st extraction, 70 W % aqueous formic acid
[6] = after 1st extraction, 70 W % aqueous formic acid, solvent:diesel about 1:1, 23° C., 2 minutes
[7] = after 2nd extraction, 70 W % aqueous formic acid
[8] = after 2nd extraction, 70 W % aqueous formic acid, solvent:diesel about 1:1, 23° C., 2 minutes
[9] = after 1st extraction, 50 W % aqueous acetic acid
[10] = after 1st extraction, 50 W % aqueous acetic acid, solvent:diesel about 1:1, 23° C., 2 minutes
[11] = after 2nd extraction, 50 W % aqueous acetic acid
[12] = after 2nd extraction, 50 W % aqueous acetic acid, solvent:diesel about 1:1, 23° C., 2 minutes
[13] = 50 W % aqueous methanol, one extraction
[14] = after 1st extraction, 50 W % aqueous methanol
[15] = after 1st extraction, 50 W % aqueous methanol, solvent:diesel about 1:1, 23° C., 2 minutes
[16] = 70 W % aqueous formic acid, 2 minutes
[17] = 50 W % aqueous acetic acid, 2 minutes

xylene
co-extraction ([1]; 70 W % aqueous formic acid, after the first extraction): 2 W % | increase after the second extraction (normalized GC peak) ([1]; 70 W % aqueous formic acid, after the second extraction): 3.8 W % | GC abundance in model diesel [1, 4]: 9283.7 abundance units | change of GC abundance versus oxidized model diesel [1, 5]: (−1.9%) | GC abundance in model diesel [1, 6]: 9111.6 abundance units | change of GC abundance versus oxidized model diesel [1, 7]: (+3.8%) | GC abundance in model diesel [1, 8]: 9635.5 abundance units | co-extraction ([2]; 50 W % aqueous acetic acid): 1.9 W % | GC abundance in model diesel [2, 4]: 9283.7 abundance units | change of GC abundance versus oxidized model diesel [2, 9]: (−1.4%) | GC abundance in model diesel [2, 10]: 9155.2 abundance units | change of GC abundance versus oxidized model diesel [2, 11]: (−1.9%) | GC abundance in model diesel [2, 12]: 9108.19 abundance units | amount increased after extraction (normalized GC results) [3, 13]: 2.8 W % | co-extraction [3, 13]: no co-extraction | GC abundance in model diesel [3, 4]: 9283.7 abundance units | change of GC abundance versus oxidized model diesel [3, 14]: +2.8%) | GC abundance in model diesel [3, 15]: 9540.4 abundance units

O=S1(=O)c2ccccc2-c2ccccc21 [DBT sulfone, dibenzothiophene 5,5-dioxide]
total extraction [1, 16]: 56 W % | GC abundance in model diesel [1, 4]: 25.09 abundance units | change of GC abundance versus oxidized model diesel [1, 5]: (−30.4%) | GC abundance in model diesel [1, 6]: 17.46 abundance units | change of GC abundance versus oxidized model diesel [1, 7]: (−55.6%) | GC abundance in model diesel [1, 8]: 11.14 abundance units | total extraction [2, 17]: 55 W % | GC abundance in model diesel [2, 4]: 25.09 abundance units | change of GC abundance versus oxidized model diesel [2, 9]: (−23.7%) | GC abundance in model diesel [2, 10]: 19.15 abundance units | change of GC abundance versus oxidized model diesel [2, 11]: (−54.8%) | GC abundance in model diesel [2, 12]: 11.39 abundance units | GC abundance in model diesel [3, 4]: 25.09 abundance units | change of GC abundance versus oxidized model diesel [3, 14]: (−2.4%) | GC abundance in model diesel [3, 15]: 24.49 abundance units

c1ccc2c(c1)sc1ccccc12 [DBT, dibenzothiophene]
co-extraction ([1]; 70 W % aqueous formic acid, after both extractions): 10 W % | GC abundance in model diesel [1, 4]: 24.44 abundance units | change of GC abundance versus oxidized model diesel [1, 5]: (−10.4%) | GC abundance in model diesel [1, 6]: 21.89 abundance units | change of GC abundance versus oxidized model diesel [1, 7]: (−10.0%) | GC abundance in model diesel [1, 8]: 22 abundance units | co-extraction ([2]; 50 W % aqueous acetic acid): 13.2 W % | GC abundance in model diesel [2, 4]: 24.44 abundance units | change of GC abundance versus oxidized model diesel [2, 9]: (−9.6%) | GC abundance in model diesel [2, 10]: 22.09 abundance units | change of GC abundance versus oxidized model diesel [2, 11]: (−13.2%) | GC abundance in model diesel [2, 12]: 21.22 abundance units | co-extraction [3, 13]: 3.1 W % | GC abundance in model diesel [3, 4]: 24.44 abundance units | change of GC abundance versus oxidized model diesel [3, 14]: (−3.1%) | GC abundance in model diesel [3, 15]: 23.69 abundance units

[O-][s+]1c2ccccc2c2ccccc21 [DBT sulfoxide, dibenzothiophene 5-oxide]
total extraction [1, 16]: 94 W % | GC abundance in model diesel [1, 4]: 24.02 abundance units | change of GC abundance versus oxidized model diesel [1, 5]: (−73.1%) | GC abundance in model diesel [1, 6]: 6.45 abundance units | change of GC abundance versus oxidized model diesel [1, 7]: (−94%) | GC abundance in model diesel [1, 8]: 1.38 abundance units | total extraction [2, 17]: 95 W % | GC abundance in model diesel [2, 4]: 24.02 abundance units | change of GC abundance versus oxidized model diesel [2, 9]: (−67.5%) | GC abundance in model diesel [2, 10]: 7.81 abundance units | change of GC abundance versus oxidized model diesel [2, 11]: (−94.8%) | GC abundance in model diesel [2, 12]: 1.26 abundance units | total extraction ([3]; 50 W % aqueous methanol, one extraction, about 1:1, 23° C., 1 atmosphere, 2 minutes): 51.5 W % | GC abundance in model diesel [3, 4]: 24.02 abundance units | change of GC abundance versus oxidized model diesel [3, 14]: (−51.5%) | GC abundance in model diesel [3, 15]: 11.64 abundance units
